In patent US10011615B2, “Heterobicyclo-substituted [1,2,4]triazolo[1,5-c]quinazolin-5-amine compounds with A2A anatagonist properties” (Merck Sharp & Dohme Corp., priority 2012, dated 2018):

Each molecule was assayed against T1, human A2a receptor (Homo sapiens, UniProt P29274) (assay: A2a receptor competition binding assay using Scintillation Proximity technology). Conditions: membranes from HEK293 cells expressing human A2a receptor; 0.5 nM tritiated radioligand; SPA beads; 1 h room temperature.
T1 construct: purchased Perkin-Elmer RBHA2AM400UA; host or cells: HEK293 cell membranes
T1 sequence (P29274 whole entry): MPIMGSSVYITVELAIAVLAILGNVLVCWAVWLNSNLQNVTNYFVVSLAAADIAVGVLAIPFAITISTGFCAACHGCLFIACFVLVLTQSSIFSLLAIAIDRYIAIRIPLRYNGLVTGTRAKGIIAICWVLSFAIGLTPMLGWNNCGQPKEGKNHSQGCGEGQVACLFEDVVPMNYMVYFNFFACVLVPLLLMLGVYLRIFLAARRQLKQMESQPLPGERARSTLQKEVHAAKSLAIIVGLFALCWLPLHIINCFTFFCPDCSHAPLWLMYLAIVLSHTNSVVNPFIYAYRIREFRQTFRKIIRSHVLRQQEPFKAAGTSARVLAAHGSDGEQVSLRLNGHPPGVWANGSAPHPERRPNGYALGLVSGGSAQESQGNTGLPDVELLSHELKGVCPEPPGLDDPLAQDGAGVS
In short: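 Membranes of HEK293 cells expressing human A2a, pretreated with adenosine deaminase, incubated 1 h at room temperature with 0.5 nM tritiated pyrazolotriazolopyrimidine antagonist (final) and compound (3000 to 0.15 nM) on WGA SPA beads in Ca/Mg-free PBS with 10 mM MgCl2. Ki from EC50 via Cheng-Prusoff.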

Structure (SMILES) | EC50 [nM]
COc1cccc2c1nc(N)n1nc(CN3CCCCc4ccc(Cl)nc43)nc21 [Ex-160, 2-((2-chloro-7,8-dihydro-5H-pyrido[2,3-b]azepin-9(6H)-yl)methyl)-7-methoxy-[1,2,4]triazolo[1,5-c]quinazolin-5-amine] | 1.5
COc1cccc2c1nc(N)n1nc(CN3CCCc4cccnc43)nc21 [Ex-161, 2-((3,4-dihydro-1,8-naphthyridin-1(2H)-yl)methyl)-7-methoxy-[1,2,4]triazolo[1,5-c]quinazolin-5-amine] | 2.1
COc1cccc2c1nc(N)n1nc(CN3CCCCc4ccc(-c5ccccn5)nc43)nc21 [Ex-162, 7-methoxy-2-((2-(pyridin-2-yl)-7,8-dihydro-5H-pyrido[2,3-b]azepin-9(6H)-yl)methyl)-[1,2,4]triazolo[1,5-c]quinazolin-5-amine] | 2.7
COc1cccc2c1nc(N)n1nc(CN3Cc4ccccc4C(C)(C)C3)nc21 [Ex-163, 2-((4,4-dimethyl-3,4-dihydroisoquinolin-2(1H)-yl)methyl)-7-methoxy-[1,2,4]triazolo[1,5-c]quinazolin-5-amine] | 2.7
COc1cc(F)cc2c1nc(N)n1nc(CN3Cc4cccnc4C3)nc21 [Ex-164, 2-((5H-pyrrolo[3,4-b]pyridin-6(7H)-yl)methyl)-9-fluoro-7-methoxy-[1,2,4]triazolo[1,5-c]quinazolin-5-amine] | 8.6
COc1cccc2c1nc(N)n1nc(CN3CCc4ccc(-c5cncnc5)cc4C3)nc21 [Ex-165, 7-methoxy-2-((7-(pyrimidin-5-yl)-3,4-dihydroisoquinolin-2(1H)-yl)methyl)-[1,2,4]triazolo[1,5-c]quinazolin-5-amine] | 4.4
COc1cccc2c1nc(N)n1nc(CN3CCc4ccc(NC(=O)c5ccccn5)cc4C3)nc21 [Ex-166, N-(2-((5-amino-7-methoxy-[1,2,4]triazolo[1,5-c]quinazolin-2-yl)methyl)-1,2,3,4-tetrahydroisoquinolin-7-yl)picolinamide] | 4.5
COc1cccc2c1nc(N)n1nc(CN3CCc4ccc(NC(C)=O)cc4C3)nc21 [Ex-167] | 7.6
COc1cccc2c1nc(N)n1nc(CN3CCc4ccc(-c5ccc(F)c(F)c5)cc4C3)nc21 [Ex-168] | 4.3
COc1cccc2c1nc(N)n1nc(CCN3CCc4ccc(-c5cncnc5)cc4C3)nc21 [Ex-172, 7-methoxy-2-(2-(7-(pyrimidin-5-yl)-3,4-dihydroisoquinolin-2(1H)-yl)ethyl)-[1,2,4]triazolo[1,5-c]quinazolin-5-amine] | 6.1
COc1cccc2c1nc(N)n1nc(CN3CCc4ccc(CC(=O)Nc5cccnc5)cc4C3)nc21 [Ex-173, 2-(2-((5-amino-7-methoxy-[1,2,4]triazolo[1,5-c]quinazolin-2-yl)methyl)-1,2,3,4-tetrahydroisoquinolin-7-yl)-N-(pyridine-3-yt)acetamide] | 9.1
COc1cccc2c1nc(N)n1nc(CN3Cc4ccc(-c5cncnc5)cc4C3)nc21 [Ex-175] | 4.6
COc1cccc2c1nc(N)n1nc(CN3CCc4cccc(-c5cncnc5)c4C3)nc21 [Ex-177, 7-methoxy-2-((8-(pyrimidin-5-yl)-3,4-dihydroisoquinolin-2(1H)-yl)methyl)-[1,2,4]triazolo[l,5-c]quinazolin-5-amine] | 17
COc1cccc2c1nc(N)n1nc(CN3CCc4ccc(-c5cnc(C(F)(F)F)nc5)cc4C3)nc21 [Ex-179, 7-methoxy-2-((7-(2-(trifluoromethyl)pydmidin-5-yl)-3,4-dihydroisoquinolin-2(1H)-yl)methyl)-[1,2,4]triazolo[1,5-c]quinazolin-5-amine] | 6.1
COc1cccc2c1nc(N)n1nc(CN3CCc4ccc(-c5cnn(C)c5)cc4C3)nc21 [Ex-180] | 9
COc1cccc2c1nc(N)n1nc(CN3CCc4ccc(-c5cnn(C)c5C(F)(F)F)cc4C3)nc21 [Ex-182, 7-methoxy-2-((7-(1-methyl-5-(trifluoromethyl)-1H-pyrazol-4-yl)-3,4-dihydroisoquinolin-2(1H)-yl)methyl)-[1,2,4]triazolo[1,5-c]quinazolin-5-amine] | 2.8
COc1cccc2c1nc(N)n1nc(CN3CCc4ccc(-c5cn(C)nc5C(F)(F)F)cc4C3)nc21 [Ex-184, 7-methoxy-2-((7-(1-methyl-3-(trifluoromethyl)-1H-pyrazol-4-yl)-3,4-dihydroisoquinolin-2(1H)-yl)methyl)-[1,2,4]triazolo[1,5-c]quinazolin-5-amine] | 2.9
COc1cccc2c1nc(N)n1nc(CN3CCc4ccc(-c5ccccc5C(F)(F)F)cc4C3)nc21 [Ex-185, 7-methoxy-2-((7-(2-(trifluoromethyl)phenyl)-3,4-dihydroisoquinolin-2(1H)-yl)methyl)-[1,2,4]triazolo[1,5-c]quinazolin-5-amine] | 11.2
COc1cccc2c1nc(N)n1nc(CN3CCc4ccc(-c5cnc(N)nc5C(F)(F)F)cc4C3)nc21 [Ex-186, 2-((7-(2-amino-4-(trifluoromethyl)pyrimidin-5-yl)-3,4-dihydroisoquinolin-2(1H)-yl)methyl)-7-methoxy-[1,2,4]triazolo[1,5-c]-quinazolin-5-amine] | 3.9
COc1cccc2c1nc(N)n1nc(CCN3CCc4ccc(-c5cnc(C(F)(F)F)nc5)cc4C3)nc21 [Ex-187, 7-methoxy-2-(2-(7-(2-(trifluoromethyl)pyrimidin-5-yl)-3,4-dihydroisoquinolin-2(1H)-yl)ethyl)-[1,2,4]triazolo[1,5-c]quinazolin-5-amine] | 2.9
Nc1nc2c(Br)cccc2c2nc(CN3CCc4cccnc4C3)nn12 [Ex-194] | 8.8

Structure (SMILES) | EC50 [nM]
Nc1nc2c(Br)cccc2c2nc(CN3Cc4cccnc4C3)nn12 [Ex-195] | 16.6
N#Cc1cccc2c1nc(N)n1nc(CN3CCc4cccnc4C3)nc21 [Ex-196, 5-amino-2-((5,6-dihydro-1,7-naphthyridin-7(8H)-yl)methyl)[1,2,4]triazolo[1,5-c]quinazoline-7-carbonitrile] | 274
N#Cc1cccc2c1nc(N)n1nc(CN3Cc4cccnc4C3)nc21 [Ex-197] | 612
COCc1cccc2c1nc(N)n1nc(CN3Cc4cccnc4C3)nc21 [Ex-198, 2-((5H-Pyrrolo[3,4-b]pyridin-6(7H)-yl)methyl)-7-(methoxymethyl)-[1,2,4]triazolo[1,5-c]quinazolin-5-amine] | 207
COCc1cccc2c1nc(N)n1nc(CN3CCc4cccnc4C3)nc21 [Ex-199] | 199
Cc1cccc2c1nc(N)n1nc(CN3Cc4cccnc4C3)nc21 [Ex-200, 2-((5H-pyrrolo[3,4-b]pyridine-6(7H)-yl)methyl)-7-methyl-[1,2,4]triazolo[1,5-c]quinazolin-5-amine] | 35.5
Cc1cccc2c1nc(N)n1nc(CN3CCc4cccnc4C3)nc21 [Ex-201] | 21.7
Nc1nc2c(OCCF)cccc2c2nc(CN3CCc4cccnc4C3)nn12 [Ex-202] | 147
CCOc1cccc2c1nc(N)n1nc(CN3Cc4cccnc4C3)nc21 [Ex-203, 2-((5H-pyrrolo[3,4-b]pyridin-6(7H)-yl)methyl)-7-ethoxy-[1,2,4]triazolo[1,5-c]quinazolin-5-amine] | 88.3
CCOc1cccc2c1nc(N)n1nc(CN3CCc4cccnc4C3)nc21 [Ex-204, 2-((5,6-dihydro-1,7-naphthyridin-7(8H)-yl)methyl)-7-ethoxy-[1,2,4]triazolo[1,5-c]quinazolin-5-amine] | 40.7
Nc1nc2c(OCF)cccc2c2nc(CN3CCc4cccnc4C3)nn12 [Ex-205, 2-((5,6-dihydro-1,7-naphthyridin-7(8H)-yl)methyl)-7-(fluoromethoxy)-[1,2,4]triazolo[1,5-c]quinazolin-5-amine] | 10.9
COc1cccc2c1nc(N)n1nc(C[C@@H](C)N3CCc4nc(C)oc4C3)nc21 [Ex-211, (R)-7-methoxy-2-(2-(2-methyl-6,7-dihydrooxazolo[5,4-c]pyridin-5(4H)-yl)propyl)-[1,2,4]triazolo[1,5-c]quinazolin-5-amine] | 3
COc1cccc2c1nc(N)n1nc(C[C@H](C)N3CCc4nc(C)oc4C3)nc21 [Ex-212, (S)-7-methoxy-2-(2-(2-methyl-6,7-dihydrooxazolo[5,4-c]pyridin-5(4H)-yl)propyl)-[1,2,4]triazolo[1,5-c]quinazolin-5-amine] | 6.1
COc1cccc2c1nc(N)n1nc(C[C@@H](C)N3CCc4oc(C)nc4C3)nc21 [Ex-214, (R)-7-methoxy-2-(2-(2-methyl-6,7-dihydrooxazolo[4,5-c]pyridin-5(4H)-yl)propyl)-[1,2,4]triazolo[1,5-c]quinazolin-5-amine] | 29
COc1cccc2c1nc(N)n1nc(C[C@H](C)N3CCc4oc(C)nc4C3)nc21 [Ex-215, (S)-7-methoxy-2-(2-(2-methyl-6,7-dihydrooxazolo[4,5-c]pyridin-5(4H)-yl)propyl)-[1,2,4]triazolo[1,5-c]quinazolin-5-amine] | 5.7
COc1cccc2c1nc(N)n1nc(C[C@@H](C)N3CCc4nc(C)sc4C3)nc21 [Ex-216, (R)-7-methoxy-2-(2-(2-methyl-6,7-dihydrothiazolo[5,4-c]pyridin-5(4H)-yl)propyl)-(1,2,4]triazolo[1,5-c]quinazolin-5-amine] | 3
COc1cccc2c1nc(N)n1nc(C[C@@H](C)N3CCn4nc(C)cc4C3)nc21 [Ex-221, (R)-7-methoxy-2-(2-(2-methyl-6,7-dihydropyrazolo[1,5-a]pyrazin-5(4H)-yl)propyl)-[1,2,4]triazolo[1,5-c]quinazolin-5-amine] | 3.9
COc1cccc2c1nc(N)n1nc(CCCN3Cc4cccnc4C3)nc21 [Ex-227, 2-(3-(5H-pyrrolo[3,4-b]pyridin-6(7H)-yl)propyl)-7-methoxy-[1,2,4]triazolo[1,5-c]quinazolin-5-amine] | 7.7
COc1cccc2c1nc(N)n1nc(CCCN3Cc4cccc(F)c4C3)nc21 [Ex-228, 2-(3-(4-fluoroisoindolin-2-yl)propyl)-7-methoxy-[1,2,4]triazolo[1,5-c]quinazolin-5-amine] | 7.8
COc1cccc2c1nc(N)n1nc(CCCN3Cc4ccc(F)cc4C3)nc21 [Ex-229] | 14.8
